From the NIST ThermoML archive (doi:10.1021/acs.jced.6b00552)
± gives the expanded uncertainty stated by the source.

Experiments:
[1] = Crystal; DSC
[2] = Molar enthalpy of transition or fusion; settings: Crystal; DSC

SMILES | Triple point temperature [1] | Molar enthalpy of transition or fusion [2]
O=C(CCc1ccc(O)cc1)c1c(O)cc(O)cc1O [3-(4-hydroxyphenyl)-1-(2,4,6-trihydroxyphenyl)propan-1-one] | 542.96 ± 1.2 K | 56.4 ± 3.5 kJ/mol
C[C@@H]1O[C@@H](O[C@H]2[C@H](Oc3cc(O)c(C(=O)CCc4ccc(O)cc4)c(O)c3)O[C@H](CO)[C@@H](O)[C@@H]2O)[C@H](O)[C@H](O)[C@H]1O [naringin dihydrochalcone] | 432.22 ± 1.2 K | 29.6 ± 1.9 kJ/mol
